Reference: patent US4018778A, “Derivatives of 1-phenoxy-3-amino-propane-2-ol and process for their production” (Cassella Farbwerke Mainkur Aktiengesellschaft, priority 1972, dated 1977)

Key:
[1] = test system: dp/dt (left ventricular blood pressure); assay: Intrinsic (inotropic) action on the dp/dt; type: in vivo, dogs; settings: number of - and + signs indicates strength of the effect
[2] = test system: changes of the dp/dt max. after isoproterenol (left ventricular blood pressure); assay: Antagonism of isoproterenol-induced change of left ventricular dp/dt max. in narcotised dogs (catheter tip manometer); type: in vivo; settings: Canis lupus familiaris, iv, isoproterenol 0.5·10^-6 gram/kg i.v., cumulative doses of test substance
Method: Isoproterenol (0.5 ^. 10^-^6 gram/kg i.v.) was injected at intervals of 15 minutes before and after increasing doses of the test substance. The changes of the dp/dt max. after isoproterenol were determined before and after the intravenous administration of the test substance. These values were used to calculate the ED50. The doses quoted in each case are the cumulative doses of the test substance.

[3] = test system: heart (inotropic intrinsic action); settings: words, cited from earlier work

SMILES	Intrinsic action on the dp/dt [1]	ED50 [2] [mg/kg]	also measured
CCOc1ccc(OCC(O)CNC(C)CC(O)c2cccnc2)cc1 (single isomer, unassigned; (-)) [(-)-1-(3'-β-pyridyl-3'-hydroxy-1'-methyl-propylamino)-3-(p-ethoxyphenoxy)-propan-2-ol, laevo-rotatory]	0		
CCOc1ccccc1OCC(O)CNC(C)CC(O)c1cccnc1 (single isomer, unassigned; (-)) [(-)-1-β-Pyridyl-3-[3-(o-ethoxyphenoxy)-2-hydroxy-propylamino]-butan-1-ol (laevo-rotatory)]		0.0026	
CCOc1ccccc1OCC(O)CNC(C)CC(O)c1cccnc1 (stereo not drawn) [1-(3'-β-Pyridyl-3'-hydroxy-1'-methyl-propylamino)-3-(o-ethoxyphenoxy)-propan-2-ol]	0	0.0151	
CC(CC(O)c1cccnc1)NCC(O)COc1ccccc1-c1ccccc1 (stereo not drawn) [1-(3'-β-Pyridyl-3'-hydroxy-1'-methyl-propylamino)-3-(o-phenylphenoxy)-propan-2-ol]	0		
COc1cccc(OCC(O)CNC(C)CC(O)c2cccnc2)c1 (stereo not drawn) [1-(3'-β-pyridyl-3'-hydroxy-1'-methyl-propylamino)-3-(m-methoxyphenoxy)-propan-2-ol]		0.012	
Cc1cccc(OCC(O)CNC(C)CC(O)c2cccnc2)c1 (stereo not drawn) [1-(3'-β-pyridyl-3'-hydroxy-1'-methyl-propylamino)-3-(m-methylphenoxy)-propan-2-ol]		0.0175	
C=CCOc1ccccc1OCC(O)CNC(C)CC(O)c1cccnc1 (stereo not drawn) [1-(3'-β-pyridyl-3'-hydroxy-1'-methyl-propylamino)-3-(o-allyloxyphenoxy)-propan-2-ol]		0.008	
C=CCc1ccccc1OCC(O)CNC(C)CC(O)c1cccnc1 (stereo not drawn) [1-(3'-β-pyridyl-3'-hydroxy-1'-methyl-propylamino)-3-(o-allylphenoxy)-propan-2-ol]		0.0178	
CC(CC(O)c1cccnc1)NCC(O)COc1ccccc1Cl (stereo not drawn) [1-(3'-β-pyridyl-3'-hydroxy-1'-methyl-propylamino)-3-(o-chlorophenoxy)-propan-2-ol]	0	0.0082	
COc1ccccc1OCC(O)CNC(C)CC(O)c1cccnc1 (stereo not drawn) [1-(3'-β-pyridyl-3'-hydroxy-1'-methyl-propylamino)-3-(o-methoxyphenoxy)-propan-2-ol]		0.006	
CC(=O)Nc1ccc(OCC(O)CNC(C)CC(O)c2cccnc2)cc1 (stereo not drawn) [1-(3'-β-pyridyl-3'-hydroxy-1'-methyl-propylamino)-3-(p-acetamino-phenoxy)-propan-2-ol]		0.0146	
CC(CC(O)c1cccnc1)NCC(O)COc1ccc(Cl)cc1 (stereo not drawn) [1-(3'-β-pyridyl-3'-hydroxy-1'-methyl-propylamino)-3-(p-chlorophenoxy)-propan-2-ol]		0.03	
CCOc1ccc(OCC(O)CNC(C)CC(O)c2cccnc2)cc1 (stereo not drawn) [1-(3'-β-pyridyl-3'-hydroxy-1'-methyl-propylamino)-3-(p-ethoxyphenoxy)-propan-2-ol]		0.0448	
CCCCCOc1ccc(OCC(O)CNC(C)CC(O)c2cccnc2)cc1 (stereo not drawn) [1-(3'-β-pyridyl-3'-hydroxy-1'-methyl-propylamino)-3-(p-pentoxyphenoxy)-propan-2-ol]	0	0.0184	
CCCOc1ccc(OCC(O)CNC(C)CC(O)c2cccnc2)cc1 (stereo not drawn) [1-(3'-β-pyridyl-3'-hydroxy-1'-methyl-propylamino)-3-(p-propoxyphenoxy)-propan-2-ol]		0.0167	
CC(C)NCC(O)COc1cccc2ccccc12 (stereo not drawn) [Propranolol]		0.0561	inotropic intrinsic action (clinical practice) [3]: strongly negative-inotropic intrinsic action; cardiac insufficiency risk ([3]; clinical practice): capable of causing an acute cardiac insufficiency or liable to intensify an already existing cardiac insufficiency
